{"source": "patent US20150099703A1", "about": "“TREATMENT OF POSTPARTUM HAEMORRHAGE WITH CHEMICALLY MODIFIED HEPARIN OR HEPARAN SULPHATE AND A UTEROTONIC AGENT” (DILAFOR AB, priority 2012, published 2015)", "key": {"[1]": {"tested_on": "Human uterine smooth muscle cells", "assay": "Intracellular Ca2+ measurement (Fluo-4, confocal live cell imaging) in uterine smooth muscle cells", "format": "cell-based", "description": "Human uterine smooth muscle cells were established in a culture. Intracellular Ca^2+ was measured with the calcium indicator dye Fluo-4 and live cell imaging with confocal microscopy was established for the cells."}, "[2]": {"settings": "heparin, comparison; cited from earlier work"}}, "note": "Positions of bridges follow the written chain, without caps; N, C: chain ends. Non-standard residues stand in square brackets, D forms with d. Residues, ends and D or L forms follow the SMILES beside them. Orn = NCCC[C@H](N)C(=O)O; Mpa = O=C(O)CCS", "data": [{"molecule": "NCCOB(c1ccccc1)c1ccccc1", "note": "[2-APB, 2-Aminoethoxydiphenyl borate]", "values": [{"measurement": "effect on oxytocin stimulated Ca2+-transport", "setting": "[1]; 100 μM, 30 min of incubation", "value": "decreased strongly"}, {"measurement": "effect on oxytocin/DF01 stimulated Ca2+-transport", "setting": "[1]; 100 μM, 30 min of incubation", "value": "decreased strongly"}]}, {"molecule": "CCOc1ccc(C[C@H]2NC(=O)CCSSC[C@@H](C(=O)N3CCC[C@H]3C(=O)N[C@@H](CCCN)C(=O)NCC(N)=O)NC(=O)[C@H](CC(N)=O)NC(=O)[C@H]([C@@H](C)O)NC(=O)[C@H]([C@@H](C)CC)NC2=O)cc1", "note": "[Atosiban] ([Mpa][dY](Et)ITNCP[Orn]G-NH2; disulfide 1-6)", "values": [{"measurement": "effect on the combination oxytocin/DF01 effect on Ca2+ transport", "setting": "[1]; concentration of 10^−6 M", "value": "clearly inhibited"}, {"measurement": "effect on the oxytocin effect on Ca2+ transport", "setting": "[1]; concentration of 10^−6 M", "value": "clearly inhibited"}]}, {"molecule": "CC[C@H](C)[C@@H]1NC(=O)[C@H](Cc2ccc(O)cc2)NC(=O)[C@@H](N)CSSC[C@@H](C(=O)N2CCC[C@H]2C(=O)N[C@@H](CC(C)C)C(=O)NCC(N)=O)NC(=O)[C@H](CC(N)=O)NC(=O)[C@H](CCC(N)=O)NC1=O", "note": "[oxytocin]", "values": [{"measurement": "Ca2+-influx to the cytosol", "setting": "[1]; cells treated with oxytocin alone", "value": "Ca^2+-influx to the cytosol was demonstrated"}, {"measurement": "concentration giving maximum effect on Ca2+-influx", "setting": "[1]; oxytocin alone, dose-dependent effect", "value": 0.05, "unit": "IU/ml"}]}, {"molecule": "heparin", "values": [{"measurement": "corresponding (subcutaneous) bioavailability", "setting": "[2]", "value": "about 10%"}]}]}
